Assay [1] deals with T1, KIT^K642E (Homo sapiens, UniProt P10721, K642E).
T1 construct: KIT^K642E assays were performed in a GIST cell line (GIST882); endogenous in cells; host or cells: GIST882
The experiment in a line: Cellular kinase phosphorylation assay, GIST882/KIT^K642E. In kind it is cell-based. The note with it: GIST882/KIT^K642E cells; 0.1% bovine serum albumin; brackets = number of experiments; read-out: Mean ± SD IC50.

Assay [2] deals with RAFs. The experiment in a line: KINOMEscan active-site competitive binding assay. Particulars: range among family members.
Assay [3] has as its system recombinant murine VEGFR2. The note with it: cited from earlier work.
The test system of assay [4] is BaF/3 cells expressing an imatinib‐resistant mutant KIT (557‐558del; T670I). Description: In vitro proliferation, BaF/3 cells expressing imatinib‐resistant mutant KIT. Type of assay: cell-based. Particulars: unpubl. data.
Assay [5] relates to HuLECs. The note with it: 100 nmol/L, 40 h, regorafenib data taken from ref 14; cited from earlier work.
In assay [6] the target is T2, FLT3^K663Q (Homo sapiens, UniProt P36888, K663Q).
T2 construct: purchased DiscoveRx
Description: KINOMEscan active-site competitive binding assay.

This is an account of results in publication PMC5119973 (Cancer Medicine, 2016).

T1 sequence (P10721 26-976 K642E): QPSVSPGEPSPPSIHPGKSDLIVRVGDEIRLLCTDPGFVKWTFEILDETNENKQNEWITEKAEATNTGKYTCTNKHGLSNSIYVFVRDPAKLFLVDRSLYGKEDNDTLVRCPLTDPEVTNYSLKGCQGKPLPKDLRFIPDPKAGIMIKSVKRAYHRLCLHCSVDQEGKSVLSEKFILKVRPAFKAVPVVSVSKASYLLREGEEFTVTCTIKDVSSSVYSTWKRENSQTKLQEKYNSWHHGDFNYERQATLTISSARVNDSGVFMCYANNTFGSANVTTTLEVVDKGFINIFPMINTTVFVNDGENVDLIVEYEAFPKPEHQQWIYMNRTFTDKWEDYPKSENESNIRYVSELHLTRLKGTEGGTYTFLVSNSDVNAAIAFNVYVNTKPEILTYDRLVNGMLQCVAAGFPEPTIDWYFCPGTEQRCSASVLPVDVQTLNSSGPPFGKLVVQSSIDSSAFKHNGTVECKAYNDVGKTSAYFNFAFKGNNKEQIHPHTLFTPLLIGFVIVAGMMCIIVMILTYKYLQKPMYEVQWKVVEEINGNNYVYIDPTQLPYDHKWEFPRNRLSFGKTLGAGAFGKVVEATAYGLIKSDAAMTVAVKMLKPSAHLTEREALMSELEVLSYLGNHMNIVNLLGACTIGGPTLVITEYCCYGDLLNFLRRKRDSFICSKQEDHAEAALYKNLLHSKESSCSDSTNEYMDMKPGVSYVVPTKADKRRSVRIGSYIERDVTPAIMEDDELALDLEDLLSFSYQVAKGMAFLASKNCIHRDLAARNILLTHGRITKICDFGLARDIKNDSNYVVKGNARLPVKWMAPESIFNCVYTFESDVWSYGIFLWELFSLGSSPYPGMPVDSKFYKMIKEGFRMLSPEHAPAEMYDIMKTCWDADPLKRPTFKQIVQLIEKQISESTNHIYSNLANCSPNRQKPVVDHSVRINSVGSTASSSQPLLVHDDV

`CNC(=O)c1cc(Oc2ccc(NC(=O)Nc3ccc(Cl)c(C(F)(F)F)c3)c(F)c2)cc[n+]1[O-]` [M‐2]: the IC50 in assay [1] worked out at 4 ± 2 nM. The Kd in assay [2] lay in the range of 24 to 130 nM.

Take `CNC(=O)c1cc(Oc2ccc(NC(=O)Nc3ccc(Cl)c(C(F)(F)F)c3)c(F)c2)ccn1` [Regorafenib, reference compound]: the IC50 in assay [3] was around 4 nM. The Inhibition of proliferation entry in assay [4] is “potent inhibition”. For the same compound, the “Inhibition of VEGF‐C‐induced migration” value in assay [5] is “inhibited”.

`NC(=O)c1cc(Oc2ccc(NC(=O)Nc3ccc(Cl)c(C(F)(F)F)c3)c(F)c2)cc[n+]1[O-]` [M‐5]: the dissociation constant (Kd) in assay [6] is 5.5 nM.

As a reminder, the IC50 is the concentration that gives 50% inhibition. As a reminder, the Kd is the constant that tells how readily two partners part at equilibrium.
